Experimental data taken from patent publication US20250326815A1, “STAPLE-CONTAINING POLYPEPTIDES AND APPLICATION THEREOF” (Soter Biopharma Pte. Ltd., priority 2021, published 2025).
pEC50: −log10 of the molar value.

Columns and labels:
GCGR = molecular target: T1, GCGR (Homo sapiens, UniProt P47871); assay: In vitro agonistic activity on GCGR (cAMP assay); format: cell-based; conditions: HEK293 cell line; for Agonistic activity on GCGR Max Activity (%): Max Dose 100 nM
T1 construct: host or cells: HEK293
T1 sequence (P47871 26-477, species assumed): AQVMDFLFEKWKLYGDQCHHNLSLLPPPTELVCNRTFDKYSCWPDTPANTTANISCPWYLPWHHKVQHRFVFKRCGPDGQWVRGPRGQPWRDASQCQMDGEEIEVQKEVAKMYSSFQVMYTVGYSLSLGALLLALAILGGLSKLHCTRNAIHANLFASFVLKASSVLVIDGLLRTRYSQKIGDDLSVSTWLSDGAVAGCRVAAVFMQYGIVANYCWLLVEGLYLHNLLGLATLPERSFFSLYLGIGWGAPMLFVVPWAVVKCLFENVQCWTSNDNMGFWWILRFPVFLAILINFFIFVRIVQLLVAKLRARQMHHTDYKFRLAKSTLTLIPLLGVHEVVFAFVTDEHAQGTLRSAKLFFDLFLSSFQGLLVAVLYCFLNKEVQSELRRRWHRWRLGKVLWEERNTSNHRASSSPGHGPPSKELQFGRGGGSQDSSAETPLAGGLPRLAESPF
Method: (§1) The cell lines were constructed by Shanghai WuXi AppTec.
(§2) The compounds to be assayed were serially diluted 4-fold with Bravo to obtain 10 concentrations, with a starting concentration of 30 μM.
(§3) 1) 100 nL of the compound was transferred to an OptiPlate-384 plate using Echo.
(§4) 2) The OptiPlate-384 plate was centrifuged at 1000 rpm for 5 seconds.
(§5) 1) A GLP-1R/GIPR/GCGR cell cryopreservation tube was quickly placed in warm water at 37° C. to thaw.
(§6) 2) The cell suspension was transferred to a 15 mL centrifuge tube, and gently washed with 10 ml of HBSS.
(§7) 3) The centrifuge tube was centrifuged at 1000 rpm at room temperature for 1 minute.
(§8) 4) The supernatant was discarded.
(§9) 5) The cells at the bottom were gently dispersed and gently washed with 10 ml of HBSS. The cells were centrifuged and sedimented, and finally resuspended with the assay buffer.
(§10) 6) Vi-cell was used to measure the cell density and viability.
(§11) 7) The concentration of GLP-1R/GIPR/GCGR cells was diluted to 2.0*105/mL with the assay buffer.
(§12) 8) […] of the diluted cell suspension was transferred to the OptiPlate-384 plate.
(§13) 9) The plate was incubated at room temperature for 30 minutes.
(§14) 1) 10 μL of 800 nM gradient diluted cAMP standard was added into an empty well of the OptiPlate-384 plate.
(§15) 2) 10 μL of cAMP assay reagent was added.
(§16) 3) The OptiPlate-384 plate was covered with a TopSeal-A film and incubated at room temperature for 60 minutes.
(§17) The TopSeal-A was peeled off and the plate was read on the EnVision.

GIPR = molecular target: T2, GIPR (Homo sapiens, UniProt P48546); assay: In vitro agonistic activity on GIPR (cAMP assay); format: cell-based; conditions: CHO cell line; for Agonistic activity on GIPR Max Activity (%): Max Dose 20 nM
T2 construct: host or cells: CHO
T2 sequence (P48546 22-466): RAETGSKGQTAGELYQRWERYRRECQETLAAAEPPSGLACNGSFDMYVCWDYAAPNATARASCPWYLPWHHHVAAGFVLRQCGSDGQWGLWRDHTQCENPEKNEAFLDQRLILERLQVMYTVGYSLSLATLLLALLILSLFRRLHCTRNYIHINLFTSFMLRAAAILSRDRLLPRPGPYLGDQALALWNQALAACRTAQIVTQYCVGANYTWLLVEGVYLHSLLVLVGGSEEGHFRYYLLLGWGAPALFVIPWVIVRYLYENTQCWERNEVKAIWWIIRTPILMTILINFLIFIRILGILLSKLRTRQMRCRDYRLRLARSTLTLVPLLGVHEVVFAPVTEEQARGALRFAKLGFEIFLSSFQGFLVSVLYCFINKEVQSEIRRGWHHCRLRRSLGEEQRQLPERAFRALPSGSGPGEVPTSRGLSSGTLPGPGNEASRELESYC
Method: as §1, §2, §3, §4, §5, §6, §7, §8, §9, §10, §11, §12, §13, §14, §15, §16, §17

DIO mice = assay: Drug efficacy study in DIO mice (weight loss); format: in vivo; conditions: 10 nmol/kg subcutaneous, once every three days
Method: The weight loss effect of the assay compound in DIO mice was studied.
1. After arriving at the facility, the DIO mice were raised in an animal breeding room with strictly controlled environmental conditions. The temperature in the breeding room was maintained at 20 to 24° C., and the humidity was maintained at 30 to 70%. The temperature and humidity in the breeding room were monitored in real time using a thermo-hygrometer, and the temperature and humidity were recorded twice a day (once in the morning and once in the afternoon). The lighting in the animal breeding room was controlled by an electronic timed lighting system. The lights were on for 12 hours and off for 12 hours every day (turned on at 7:00 am and turned off at 19:00 pm). During the assay, the animals were raised in individual cages and toys were provided in each cage. During the assay, the animals had free access to food (growth/breeding feed for rats and mice) and water.
2. The animals in each group were subcutaneously injected with a solvent or an assay compound (10 nmol/kg), respectively. The administration time was 9:30 in the morning. The administration frequency was once every three days, and the administration cycle was 21 days.

[1] = Plasma stability assay (PLS), human; format: in vitro ADME; conditions: pH 7.4, 37° C., read-out: PLS (human) T1/2
[2] = Plasma stability assay (PLS), mouse; format: in vitro ADME; conditions: pH 7.4, 37° C., read-out: PLS (mouse) T1/2
Method: Stability of the assay compound in normal mouse plasma was studied.
1. Before the assay, the coagulated frozen plasma was thawed in a 37° C. water bath. The plasma was centrifuged at 4000 rpm for 5 minutes. If there were blood clots, the blood clots were removed. The pH value was adjusted to 7.4±0.1.
2. Preparation of assay compound solution: An assay compound was dissolved in DMSO to prepare a 100 μM solution.
3. 98 μL of blank control plasma was added to 2 μL of the assay compound solution (100 μM), so that the final concentration of the mixed solution reached 2 μM. The mixed solution was incubated in a 37° C. water bath.
4. 100 μL of H3PO4 solution and 800 μL of stop solution (a solution of 200 ng/ml tolbutamide and 200 ng/ml labetalol in 100% methanol) were added at each time point (0, 10, 30, 60 and 120 min), respectively, to precipitate proteins, and mixed thoroughly.
5. The sample was centrifuged at 4000 rpm for 20 min. 100 μL of supernatant from each well was taken for LC-MS/MS analysis.

STZ-NASH mouse model = assay: In vivo drug efficacy in STZ-NASH mouse model; parameters: species or system C57BL/6 mice; conditions: STZ-NASH mice, 20 nmol/kg SC every two days, 5 weeks, endpoint
Method: Drug efficacy of the assay substance in the NASH model induced by streptozotocin (STZ)+high-fat diet (HFD) in C57BL/6 mice was verified.
Modeling method: Newborn mice were subcutaneously injected with STZ (200 μg/mouse) within 48 hours after birth. After 4 weeks of breastfeeding, animals with a fasting blood glucose level of >12 mmol/L were selected and subjected to a HFD feeding for 6 consecutive weeks to finally establish the NASH model. Another 8 animals were selected without STZ injection and HFD feeding (normal control group).
Administration scheme: Administration was started after one week of HFD feeding, and the first day of administration was set as Day 1. Then, the mice were subcutaneously injected every two days for 5 consecutive weeks.
Detection at the endpoint of the assay: Pathological hematoxylin-eosin staining and picro sirius red staining were performed.

Row | pEC50 (GCGR) | Agonistic activity on GCGR Max Activity (%) (GCGR) | pEC50 (GIPR) | Agonistic activity on GIPR Max Activity (%) (GIPR) | half-life at 2 μM [1] | half-life at 2 μM [2] | SMILES | ΔBody weight % (comparison of the body weight after 21 days with the body weight on day 1) (DIO mice) | Ballooning score (STZ-NASH mouse model) | Fibrosis (%) (STZ-NASH mouse model) | Inflammation score (STZ-NASH mouse model) | NAS score (STZ-NASH mouse model) | Steatosis score (STZ-NASH mouse model)
1 | 10.57 | 98.93% | < 7.70 | 2.26% | > 4.82 h | > 4.82 h | CC(C)C[C@H](NC(=O)[C@H](CC(C)C)NC(=O)[C@H](Cc1c[nH]c2ccccc12)NC(=O)[C@H](CCC(=O)O)NC(=O)[C@@H](NC(=O)[C@H](Cc1ccccc1)NC(=O)[C@H](CCC(=O)O)NC(=O)[C@@H]1CCCCNC(=O)CN(C(=O)COCCOCCNC(=O)COCCOCCNC(=O)CC[C@H](NC(=O)CCCCCCCCCCCCCCCCCCC(=O)O)C(=O)O)CC(=O)NCCCC[C@H](NC(=O)[C@H](CCC(=O)O)NC(=O)[C@H](CC(=O)O)NC(=O)[C@H](CC(C)C)NC(=O)[C@H](Cc2ccc(O)cc2)NC(=O)[C@H](CCCCN)NC(=O)[C@H](CO)NC(=O)[C@H](Cc2ccc(O)cc2)NC(=O)[C@H](CC(=O)O)NC(=O)[C@H](CO)NC(=O)[C@@H](NC(=O)[C@H](Cc2ccccc2)NC(=O)[C@@H](NC(=O)CNC(=O)[C@H](CCC(N)=O)NC(=O)C(C)(C)NC(=O)[C@@H](N)Cc2c[nH]cn2)[C@@H](C)O)[C@@H](C)O)C(=O)N[C@@H](CCCCN)C(=O)N[C@@H](C)C(=O)N1)C(C)C)C(=O)N[C@@H](CCC(=O)O)C(=O)NCC(=O)NCC(=O)N1CCC[C@H]1C(=O)N[C@@H](CO)C(=O)N[C@@H](CO)C(=O)NCC(N)=O [WX001] | −28.91% | 0 | 1.21% | 1.63 | 2.63 | 1.0
2 | 10.27 | 68.62% | < 7.70 | 4.12% | – | – | CC(C)C[C@H](NC(=O)[C@H](CC(C)C)NC(=O)[C@H](Cc1c[nH]c2ccccc12)NC(=O)[C@@H]1CCCCNC(=O)CN(C(=O)COCCOCCNC(=O)COCCOCCNC(=O)CC[C@H](NC(=O)CCCCCCCCCCCCCCCCCCC(=O)O)C(=O)O)CC(=O)NCCCC[C@H](NC(=O)[C@H](C)NC(=O)[C@H](CCCCN)NC(=O)[C@H](CCCCN)NC(=O)[C@H](CCC(=O)O)NC(=O)[C@H](CC(=O)O)NC(=O)[C@H](CC(C)C)NC(=O)[C@H](Cc2ccc(O)cc2)NC(=O)[C@H](CCCCN)NC(=O)[C@H](CO)NC(=O)[C@H](Cc2ccc(O)cc2)NC(=O)[C@H](CC(=O)O)NC(=O)[C@H](CO)NC(=O)[C@@H](NC(=O)[C@H](Cc2ccccc2)NC(=O)[C@@H](NC(=O)CNC(=O)[C@H](CCC(N)=O)NC(=O)C(C)(C)NC(=O)[C@@H](N)Cc2c[nH]cn2)[C@@H](C)O)[C@@H](C)O)C(=O)N[C@@H](CCC(=O)O)C(=O)N[C@@H](Cc2ccccc2)C(=O)N[C@@H](C(C)C)C(=O)N1)C(=O)N[C@@H](CCC(=O)O)C(=O)NCC(=O)NCC(=O)N1CCC[C@H]1C(=O)N[C@@H](CO)C(=O)N[C@@H](CO)C(=O)NCC(N)=O [WX004] | −31.89% | – | – | – | – | –
